Assay results reported in patent publication US10765114B2, “4-amino-6-(pyridyl and 2-substitutedphenyl)-picolinates and 6-amino-2-(pyridyl and 2-substitutedphenyl)-pyrimidine-4-carboxylates and their use as herbicides” (Dow AgroSciences LLC, priority 2013, dated 2020).
Like-named read-outs stand apart in the source and are kept apart here.

Columns and labels:
[1] = test system: Key Broadleaf Weed and Crop Species; assay: Post-Emergent Test II (Table 5); format: in vivo; details: post-emergence, 336 h; for pest or weed control at 70 g/ha: application rate 70 (kg ai/ha; footnote: g ai/ha); for pest or weed control at 140 g/ha: application rate 140 (kg ai/ha; footnote: g ai/ha)
In short: (§1)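 Visual injury ratings (0 = no injury, 100 = complete kill) were taken 14 days after treatment relative to untreated plants. Seedlings at the first or second true leaf stage received an overhead spray at 187 L/ha, and solvent-blank sprayed plants served as controls.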

[2] = test system: Key Grass and Sedge Weeds as well as Grass Crops; assay: Post-Emergent Test II (Table 6); format: in vivo; details: post-emergence, 336 h, 14 days after application; for pest or weed control at 70 g/ha: 70 g ai/ha; for pest or weed control at 140 g/ha: 140 g ai/ha
In short: as §1

[3] = Abutilon theophrasti, ABUTH: velvetleaf (Abutilon theophrasti), read-out: Visual Growth Reduction (%) 14 Days After Application ABUTH
[4] = Amaranthus retroflexus, AMARE: redroot pigweed (Amaranthus retroflexus), read-out: Visual Growth Reduction (%) 14 Days After Application AMARE
[5] = Brassica napus, BRSSS: oilseed rape, canola (Brassica napus), read-out: Visual Growth Reduction (%) 14 Days After Application BRSSS
[6] = Chenopodium album, CHEAL: lambsquarters (Chenopodium album), read-out: Visual Growth Reduction (%) 14 Days After Application CHEAL
[7] = Euphorbia heterophylla, EPHHL: wild poinsettia (Euphorbia heterophylla), read-out: Visual Growth Reduction (%) 14 Days After Application EPHHL
[8] = Helianthus annuus, HELAN: sunflower (Helianthus annuus), read-out: Visual Growth Reduction (%) 14 Days After Application HELAN
[9] = Viola tricolor, VIOTR: wild pansy (Viola tricolor), read-out: Visual Growth Reduction (%) 14 Days After Application VIOTR
[10] = CYPSS, read-out: Visual Growth Reduction (%) 14 Days After Application CYPSS
[11] = DIGSA: crabgrass (Digitaria sanguinalis), read-out: Visual Growth Reduction (%) 14 Days After Application DIGSA
[12] = ECHSS, read-out: Visual Growth Reduction (%) 14 Days After Application ECHSS
[13] = ORYSS (crop), read-out: Visual Growth Reduction (%) 14 Days After Application ORYSS
[14] = SETFA: giant foxtail (Setaria faberi), read-out: Visual Growth Reduction (%) 14 Days After Application SETFA
[15] = SORVU: grain sorghum (Sorghum vulgare), read-out: Visual Growth Reduction (%) 14 Days After Application SORVU
[16] = TRZSS (crop), read-out: Visual Growth Reduction (%) 14 Days After Application TRZSS
[17] = ZEAMX: maize, corn (Zea mays), read-out: Visual Growth Reduction (%) 14 Days After Application ZEAMX

With `COC(=O)c1nc(-c2ccc(C)nc2)c(F)c(N)c1Cl` [Compound 90] as the compound, how does the pest or weed control at 70 g/ha [1, 3] read?
Its pest or weed control at 70 g/ha is 85 to 94%.

What about the pest or weed control at 140 g/ha [1, 3] of the same compound?
Its pest or weed control at 140 g/ha is 95 to 100%.

And the pest or weed control at 70 g/ha [1, 4]?
Its pest or weed control at 70 g/ha is 95 to 100%.

What about the pest or weed control at 140 g/ha [1, 4] of the same compound?
Its pest or weed control at 140 g/ha is 95 to 100%.

What about the pest or weed control at 70 g/ha [1, 5] of the same compound?
The pest or weed control at 70 g/ha was 60 to 74%.

And the pest or weed control at 140 g/ha [1, 5]?
The pest or weed control at 140 g/ha was 75 to 84%.

And the pest or weed control at 70 g/ha [1, 6]?
Its pest or weed control at 70 g/ha is 95 to 100%.

What about the pest or weed control at 140 g/ha [1, 6] of the same compound?
Its pest or weed control at 140 g/ha is 95 to 100%.

What about the pest or weed control at 70 g/ha [1, 7] of the same compound?
The pest or weed control at 70 g/ha was 85 to 94%.

What about the pest or weed control at 140 g/ha [1, 7] of the same compound?
Its pest or weed control at 140 g/ha is 95 to 100%.

And the pest or weed control at 70 g/ha [1, 8]?
Its pest or weed control at 70 g/ha is 95 to 100%.

And the pest or weed control at 140 g/ha [1, 8]?
Its pest or weed control at 140 g/ha is 95 to 100%.

And the pest or weed control at 70 g/ha [1, 9]?
Its pest or weed control at 70 g/ha is 0 to 29%.

And the pest or weed control at 140 g/ha [1, 9]?
The pest or weed control at 140 g/ha was 45 to 59%.

What about the melting point of the same compound?
Its melting point is 191 °C.

And the pest or weed control at 70 g/ha [2, 10]?
Its pest or weed control at 70 g/ha is 0 to 29%.

And the pest or weed control at 140 g/ha [2, 10]?
The pest or weed control at 140 g/ha was 0 to 29%.

And the pest or weed control at 70 g/ha [2, 11]?
The pest or weed control at 70 g/ha was 0 to 29%.

And the pest or weed control at 140 g/ha [2, 11]?
Its pest or weed control at 140 g/ha is 45 to 59%.

What about the pest or weed control at 70 g/ha [2, 12] of the same compound?
The pest or weed control at 70 g/ha was 75 to 84%.

And the pest or weed control at 140 g/ha [2, 12]?
The pest or weed control at 140 g/ha was 75 to 84%.

What about the pest or weed control at 70 g/ha [2, 13] of the same compound?
Its pest or weed control at 70 g/ha is 0 to 29%.

And the pest or weed control at 140 g/ha [2, 13]?
The pest or weed control at 140 g/ha was 0 to 29%.

What about the pest or weed control at 70 g/ha [2, 14] of the same compound?
Its pest or weed control at 70 g/ha is 45 to 59%.

And the pest or weed control at 140 g/ha [2, 14]?
Its pest or weed control at 140 g/ha is 60 to 74%.

And the pest or weed control at 70 g/ha [2, 15]?
The pest or weed control at 70 g/ha was 45 to 59%.

And the pest or weed control at 140 g/ha [2, 15]?
Its pest or weed control at 140 g/ha is 45 to 59%.

And the pest or weed control at 70 g/ha [2, 16]?
Its pest or weed control at 70 g/ha is 30 to 44%.

And the pest or weed control at 140 g/ha [2, 16]?
Its pest or weed control at 140 g/ha is 30 to 44%.

And the pest or weed control at 70 g/ha [2, 17]?
Its pest or weed control at 70 g/ha is 95 to 100%.

And the pest or weed control at 140 g/ha [2, 17]?
Its pest or weed control at 140 g/ha is 95 to 100%.

For `COC(=O)c1nc(-c2ccc(C(F)(F)F)nc2F)cc(N)c1Cl` [Compound 74], which pest or weed control at 70 g/ha [1, 3] is on record?
The pest or weed control at 70 g/ha was 85 to 94%.

What about the pest or weed control at 140 g/ha [1, 3] of the same compound?
Its pest or weed control at 140 g/ha is 95 to 100%.

And the pest or weed control at 70 g/ha [1, 5]?
The pest or weed control at 70 g/ha was 30 to 44%.

What about the pest or weed control at 140 g/ha [1, 5] of the same compound?
Its pest or weed control at 140 g/ha is 45 to 59%.

What about the pest or weed control at 70 g/ha [1, 6] of the same compound?
Its pest or weed control at 70 g/ha is 75 to 84%.

What about the pest or weed control at 140 g/ha [1, 6] of the same compound?
Its pest or weed control at 140 g/ha is 85 to 94%.

What about the pest or weed control at 70 g/ha [1, 7] of the same compound?
The pest or weed control at 70 g/ha was 0 to 29%.

What about the pest or weed control at 140 g/ha [1, 7] of the same compound?
The pest or weed control at 140 g/ha was 0 to 29%.

And the pest or weed control at 70 g/ha [1, 8]?
Its pest or weed control at 70 g/ha is 45 to 59%.

What about the pest or weed control at 140 g/ha [1, 8] of the same compound?
Its pest or weed control at 140 g/ha is 60 to 74%.

What about the pest or weed control at 70 g/ha [1, 9] of the same compound?
Its pest or weed control at 70 g/ha is 0 to 29%.

And the pest or weed control at 140 g/ha [1, 9]?
Its pest or weed control at 140 g/ha is 0 to 29%.

And the melting point?
Its melting point is 138 to 141 °C.

And the pest or weed control at 70 g/ha [2, 10]?
Its pest or weed control at 70 g/ha is 0 to 29%.

What about the pest or weed control at 140 g/ha [2, 10] of the same compound?
The pest or weed control at 140 g/ha was 0 to 29%.

And the pest or weed control at 70 g/ha [2, 11]?
The pest or weed control at 70 g/ha was 0 to 29%.

And the pest or weed control at 140 g/ha [2, 11]?
The pest or weed control at 140 g/ha was 0 to 29%.

And the pest or weed control at 70 g/ha [2, 12]?
The pest or weed control at 70 g/ha was 0 to 29%.

And the pest or weed control at 140 g/ha [2, 12]?
The pest or weed control at 140 g/ha was 45 to 59%.

What about the pest or weed control at 70 g/ha [2, 13] of the same compound?
The pest or weed control at 70 g/ha was 0 to 29%.

What about the pest or weed control at 140 g/ha [2, 13] of the same compound?
Its pest or weed control at 140 g/ha is 0 to 29%.

And the pest or weed control at 70 g/ha [2, 14]?
The pest or weed control at 70 g/ha was 0 to 29%.

And the pest or weed control at 140 g/ha [2, 14]?
The pest or weed control at 140 g/ha was 0 to 29%.

What about the pest or weed control at 70 g/ha [2, 15] of the same compound?
Its pest or weed control at 70 g/ha is 0 to 29%.

And the pest or weed control at 140 g/ha [2, 15]?
The pest or weed control at 140 g/ha was 45 to 59%.

And the pest or weed control at 70 g/ha [2, 16]?
Its pest or weed control at 70 g/ha is 0 to 29%.

And the pest or weed control at 140 g/ha [2, 16]?
The pest or weed control at 140 g/ha was 0 to 29%.

And the pest or weed control at 70 g/ha [2, 17]?
The pest or weed control at 70 g/ha was 0 to 29%.

And the pest or weed control at 140 g/ha [2, 17]?
Its pest or weed control at 140 g/ha is 30 to 44%.

What does the source list for `COC(=O)c1nc(-c2ccc(C(F)(F)F)nc2F)c(F)c(N)c1Cl` [Compound 24]?
pest or weed control at 70 g/ha [1, 3]: 75 to 84%; pest or weed control at 140 g/ha [1, 3]: 75 to 84%; pest or weed control at 70 g/ha [1, 4]: 75 to 84%; pest or weed control at 140 g/ha [1, 4]: 95 to 100%; pest or weed control at 70 g/ha [1, 5]: 60 to 74%; pest or weed control at 140 g/ha [1, 5]: 75 to 84%; pest or weed control at 70 g/ha [1, 6]: 95 to 100%; pest or weed control at 140 g/ha [1, 6]: 95 to 100%; pest or weed control at 70 g/ha [1, 7]: 85 to 94%; pest or weed control at 140 g/ha [1, 7]: 85 to 94%; pest or weed control at 70 g/ha [1, 8]: 95 to 100%; pest or weed control at 140 g/ha [1, 8]: 95 to 100%; pest or weed control at 70 g/ha [1, 9]: 0 to 29%; pest or weed control at 140 g/ha [1, 9]: 0 to 29%; melting point: 128 °C; pest or weed control at 70 g/ha [2, 10]: 45 to 59%; pest or weed control at 140 g/ha [2, 10]: 95 to 100%; pest or weed control at 70 g/ha [2, 11]: 0 to 29%; pest or weed control at 140 g/ha [2, 11]: 75 to 84%; pest or weed control at 70 g/ha [2, 12]: 45 to 59%; pest or weed control at 140 g/ha [2, 12]: 60 to 74%; pest or weed control at 70 g/ha [2, 13]: 0 to 29%; pest or weed control at 140 g/ha [2, 13]: 0 to 29%; pest or weed control at 70 g/ha [2, 14]: 75 to 84%; pest or weed control at 140 g/ha [2, 14]: 75 to 84%; pest or weed control at 70 g/ha [2, 15]: 30 to 44%; pest or weed control at 140 g/ha [2, 15]: 45 to 59%; pest or weed control at 70 g/ha [2, 16]: 0 to 29%; pest or weed control at 140 g/ha [2, 16]: 0 to 29%; pest or weed control at 70 g/ha [2, 17]: 0 to 29%; pest or weed control at 140 g/ha [2, 17]: 95 to 100%
